Key:
Format in all cases: in vivo
[1] = test system: field corn (Zea mays L., var. Dekalb 535, CORN); test: Pre-emerge test, crop safety
Procedure, shortened: (§1)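 Visual ratings on a 0-100 scale (0 no damage, 100 all plants dead) were taken at 14 days after treatment. Rates of 15-1000 g ai/ha in acetone, 187 l/ha, were sprayed onto soil one day after planting (pre-emerge) or onto 2-3 leaf plants with 0.25% v/v surfactant (post-emerge).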

[2] = test system: upland rice (Oryza sp., var. Tebonnet, RICE); test: Pre-emerge test, crop safety
Procedure, shortened: as §1

[3] = test system: field corn (Zea mays L., var. Dekalb 535, CORN); test: Post-emerge test, crop safety; conditions: post-emerge; for Post-emerge Herbicidal Activity CORN: crop damage rating 0-100 at 14 days after application; for phytotoxicity rating CORN (crop damage): 14 days after application, rating scale 0-100
Procedure, shortened: (§2)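 Rating: 0–100 visual injury, 14 DAA. Application: acetone, 187 l/ha, 15–1000 g ai/ha, flat-fan track sprayer with nozzle 40–45 cm above soil or canopy. Post-emerge runs used 0.25% v/v surfactant on 2–3 leaf plants.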

[4] = test system: upland rice (Oryza sp., var. Tebonnet, RICE); test: Post-emerge test, crop safety; conditions: post-emerge; for Post-emerge Herbicidal Activity RICE: crop damage rating 0-100 at 14 days after application; for phytotoxicity rating RICE (crop damage): 14 days after application, rating scale 0-100
Procedure, shortened: as §2

[5] = test system: lambsquarters (Chenopodium album, CHEAL); test: Post-emerge test, greenhouse herbicide activity screening; conditions: post-emerge; for Post-emerge Herbicidal Activity CHEAL: phytotoxicity rating 0-100 at 14 days after application; for phytotoxicity rating CHEAL: 14 days after application, rating scale 0-100
Procedure, shortened: (§3)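 Applied at 15–1000 g ai/ha from acetone in 187 l/ha spray volume. Post-emergence applications included 0.25% v/v non-ionic surfactant and reached plants sown 8–21 days before. Pre-emergence applications were incorporated by surface watering. Efficacy or crop damage was rated on a 0–100 scale after 14 days.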

[6] = test system: velvetleaf (Abutilon theophrasti, ABUTH); test: as above; conditions: post-emerge; for Post-emerge Herbicidal Activity ABUTH: phytotoxicity rating 0-100 at 14 days after application; for phytotoxicity rating ABUTH: 14 days after application, rating scale 0-100
Procedure, shortened: as §3

[7] = test system: ivyleaf morningglory (Ipomoea hederacea, IPOHE); test: as above; conditions: post-emerge; for Post-emerge Herbicidal Activity IPOHE: phytotoxicity rating 0-100 at 14 days after application; for phytotoxicity rating IPOHE: 14 days after application, rating scale 0-100
Procedure, shortened: as §3

[8] = test system: redroot pigweed (Amaranthus retroflexus, AMARE); test: as above; conditions: post-emerge; for Post-emerge Herbicidal Activity AMARE: phytotoxicity rating 0-100 at 14 days after application; for phytotoxicity rating AMARE: 14 days after application
Procedure, shortened: as §3

[9] = test system: green foxtail (Setaria viridis, SETVI); test: as above; conditions: post-emerge; for Post-emerge Herbicidal Activity SETVI: phytotoxicity rating 0-100 at 14 days after application; for phytotoxicity rating SETVI: 14 days after application, rating scale 0-100
Procedure, shortened: as §3

[10] = test system: barnyardgrass (Echinochloa crus-galli, ECHCG); test: as above; conditions: post-emerge; for Post-emerge Herbicidal Activity ECHCG: phytotoxicity rating 0-100 at 14 days after application; for phytotoxicity rating ECHCG: 14 days after application, rating scale 0-100
Procedure, shortened: as §3

[11] = test system: large crabgrass (Digitaria sanguinalis, DIGSA); test: as above; conditions: post-emerge; for Post-emerge Herbicidal Activity DIGSA: phytotoxicity rating 0-100 at 14 days after application; for phytotoxicity rating DIGSA: 14 days after application, rating scale 0-100
Procedure, shortened: as §3

[12] = test system: johnsongrass (Sorghum halepense, SORHA); test: as above; conditions: post-emerge; for Post-emerge Herbicidal Activity SORHA: phytotoxicity rating 0-100 at 14 days after application; for phytotoxicity rating SORHA: 14 days after application, rating scale 0-100
Procedure, shortened: as §3

[13] = test system: sicklepod (Cassia obtusifolia, CASOB); test: as above; conditions: post-emerge; for Post-emerge Herbicidal Activity CASOB: phytotoxicity rating 0-100 at 14 days after application; for phytotoxicity rating CASOB: 14 days after application, rating scale 0-100
Procedure, shortened: as §3

[14] = test system: lambsquarters (Chenopodium album, CHEAL); test: Pre-emerge test, greenhouse herbicide activity screening
Procedure, shortened: (§4)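 Compounds in acetone were track-sprayed at 15–1000 g ai/ha: pre-emergence onto soil sown the previous day, then top-watered to incorporate and later bottom-watered; post-emergence onto 2–3 leaf plants with 0.25% v/v surfactant, bottom-watered only. Ratings on a 0–100 phytotoxicity scale were taken at day 14.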

[15] = test system: velvetleaf (Abutilon theophrasti, ABUTH); test: as above
Procedure, shortened: as §4

[16] = test system: ivyleaf morningglory (Ipomoea hederacea, IPOHE); test: as above
Procedure, shortened: as §4

[17] = test system: green foxtail (Setaria viridis, SETVI); test: as above
Procedure, shortened: as §4

[18] = test system: barnyardgrass (Echinochloa crus-galli, ECHCG); test: as above
Procedure, shortened: as §4

[19] = test system: large crabgrass (Digitaria sanguinalis, DIGSA); test: as above
Procedure, shortened: as §4

[20] = test system: johnsongrass (Sorghum halepense, SORHA); test: as above
Procedure, shortened: as §4

[21] = test system: sicklepod (Cassia obtusifolia, CASOB); test: as above
Procedure, shortened: as §4

[22] = test system: redroot pigweed (Amaranthus retroflexus, AMARE); test: as above
Procedure, shortened: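 Sandy loam pots; pre-emerge: sown 1 d pre-spray, surface-watered after, then bottom-watered. Post-emerge: sown 8–21 d before, 2–3 leaf stage, + 0.25% v/v NIS, bottom-watered. Acetone, 187 l/ha track spray, 15–1000 g ai/ha. 0–100 injury score, day 14.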

[23] = crop damage, pre-emerge, rate 63 g ai/ha, phytotoxicity rating 0-100 at 14 days after application
[24] = crop damage, pre-emerge, rate 250 g ai/ha, phytotoxicity rating 0-100 at 14 days after application
[25] = pre-emerge, rate 63 g ai/ha, phytotoxicity rating 0-100 at 14 days after application
[26] = pre-emerge, rate 250 g ai/ha, phytotoxicity rating 0-100 at 14 days after application
[27] = 63 g ai/ha, crop damage rating 0-100, 14 days after application
[28] = 250 g ai/ha, crop damage rating 0-100, 14 days after application
[29] = 63 g ai/ha, phytotoxicity rating 0-100, 14 days after application
[30] = 250 g ai/ha, phytotoxicity rating 0-100, 14 days after application

Q: What does the source list for `C#CCOc1c(Cl)cc(F)c(N2C(=O)C3=C(CCCC3)C2=O)c1N` [Compound 8-3, N-(2-amino-4-chloro-6-fluoro-3-propargyloxyphenyl)tetrahydrophthalimide]?
A: Pre-emerge Herbicidal Activity CORN [1, 23]: 10; Pre-emerge Herbicidal Activity CORN [1, 24]: 0; Pre-emerge Herbicidal Activity RICE [2, 23]: 0; Pre-emerge Herbicidal Activity RICE [2, 24]: 0; Post-emerge Herbicidal Activity CORN ([3]; 63 g ai/ha): 0; Post-emerge Herbicidal Activity CORN ([3]; 250 g ai/ha): 0; Post-emerge Herbicidal Activity RICE ([4]; 63 g ai/ha): 20; Post-emerge Herbicidal Activity RICE ([4]; 250 g ai/ha): 80; Post-emerge Herbicidal Activity CHEAL ([5]; 63 g ai/ha): 70; Post-emerge Herbicidal Activity CHEAL ([5]; 250 g ai/ha): 90; Post-emerge Herbicidal Activity ABUTH ([6]; 63 g ai/ha): 90; Post-emerge Herbicidal Activity ABUTH ([6]; 250 g ai/ha): 100; Post-emerge Herbicidal Activity IPOHE ([7]; 63 g ai/ha): 40; Post-emerge Herbicidal Activity IPOHE ([7]; 250 g ai/ha): 60; Post-emerge Herbicidal Activity AMARE ([8]; 63 g ai/ha): 90; Post-emerge Herbicidal Activity AMARE ([8]; 250 g ai/ha): 100; Post-emerge Herbicidal Activity SETVI ([9]; 63 g ai/ha): 0; Post-emerge Herbicidal Activity SETVI ([9]; 250 g ai/ha): 70; Post-emerge Herbicidal Activity ECHCG ([10]; 63 g ai/ha): 0; Post-emerge Herbicidal Activity ECHCG ([10]; 250 g ai/ha): 0; Post-emerge Herbicidal Activity DIGSA ([11]; 63 g ai/ha): 0; Post-emerge Herbicidal Activity DIGSA ([11]; 250 g ai/ha): 0; Post-emerge Herbicidal Activity SORHA ([12]; 63 g ai/ha): 0; Post-emerge Herbicidal Activity SORHA ([12]; 250 g ai/ha): 20; Post-emerge Herbicidal Activity CASOB ([13]; 63 g ai/ha): 0; Post-emerge Herbicidal Activity CASOB ([13]; 250 g ai/ha): 50; Pre-emerge Herbicidal Activity CHEAL [14, 25]: 99; Pre-emerge Herbicidal Activity CHEAL [14, 26]: 100; Pre-emerge Herbicidal Activity ABUTH [15, 25]: 98; Pre-emerge Herbicidal Activity ABUTH [15, 26]: 100; Pre-emerge Herbicidal Activity IPOHE [16, 25]: 30; Pre-emerge Herbicidal Activity IPOHE [16, 26]: 10; Pre-emerge Herbicidal Activity SETVI [17, 25]: 95; Pre-emerge Herbicidal Activity SETVI [17, 26]: 98; Pre-emerge Herbicidal Activity ECHCG [18, 25]: 0; Pre-emerge Herbicidal Activity ECHCG [18, 26]: 10; Pre-emerge Herbicidal Activity DIGSA [19, 25]: 30; Pre-emerge Herbicidal Activity DIGSA [19, 26]: 60; Pre-emerge Herbicidal Activity SORHA [20, 25]: 20; Pre-emerge Herbicidal Activity SORHA [20, 26]: 30; Pre-emerge Herbicidal Activity CASOB [21, 25]: 30; Pre-emerge Herbicidal Activity CASOB [21, 26]: 50; Pre-emerge Herbicidal Activity AMARE [22, 25]: 99; Pre-emerge Herbicidal Activity AMARE [22, 26]: 100

Q: What does the source list for `COc1c(Cl)cc(F)c(-n2c(=O)cc(C(F)(F)F)n(C)c2=O)c1NC(=O)OCc1ccc(C)c(C)c1` [4-26]?
A: Pre-emerge Herbicidal Activity CORN [1, 27]: 0; Pre-emerge Herbicidal Activity CORN [1, 28]: 0; Pre-emerge Herbicidal Activity RICE [2, 27]: 0; Pre-emerge Herbicidal Activity RICE [2, 28]: 45; phytotoxicity rating CORN (crop damage) ([3]; 63 g ai/ha): 5; phytotoxicity rating CORN (crop damage) ([3]; 250 g ai/ha): 20; phytotoxicity rating RICE (crop damage) ([4]; 63 g ai/ha): 15; phytotoxicity rating RICE (crop damage) ([4]; 250 g ai/ha): 45; phytotoxicity rating CHEAL ([5]; 63 g ai/ha): 90; phytotoxicity rating CHEAL ([5]; 250 g ai/ha): 100; phytotoxicity rating ABUTH ([6]; 63 g ai/ha): 100; phytotoxicity rating ABUTH ([6]; 250 g ai/ha): 100; phytotoxicity rating IPOHE ([7]; 63 g ai/ha): 100; phytotoxicity rating IPOHE ([7]; 250 g ai/ha): 100; phytotoxicity rating AMARE ([8]; 63 g ai/ha, rating scale 0-100 (0 no damage, 100 complete death)): 100; phytotoxicity rating AMARE ([8]; 250 g ai/ha, rating scale 0-100): 100; phytotoxicity rating SETVI ([9]; 63 g ai/ha): 20; phytotoxicity rating SETVI ([9]; 250 g ai/ha): 60; phytotoxicity rating ECHCG ([10]; 63 g ai/ha): 10; phytotoxicity rating ECHCG ([10]; 250 g ai/ha): 50; phytotoxicity rating DIGSA ([11]; 63 g ai/ha): 20; phytotoxicity rating DIGSA ([11]; 250 g ai/ha): 50; phytotoxicity rating SORHA ([12]; 63 g ai/ha): 10; phytotoxicity rating SORHA ([12]; 250 g ai/ha): 50; phytotoxicity rating CASOB ([13]; 63 g ai/ha): 30; phytotoxicity rating CASOB ([13]; 250 g ai/ha): 60; Pre-emerge Herbicidal Activity CHEAL [14, 29]: 100; Pre-emerge Herbicidal Activity CHEAL [14, 30]: 100; Pre-emerge Herbicidal Activity ABUTH [15, 29]: 80; Pre-emerge Herbicidal Activity ABUTH [15, 30]: 100; Pre-emerge Herbicidal Activity IPOHE [16, 29]: 0; Pre-emerge Herbicidal Activity IPOHE [16, 30]: 10; Pre-emerge Herbicidal Activity SETVI [17, 29]: 75; Pre-emerge Herbicidal Activity SETVI [17, 30]: 95; Pre-emerge Herbicidal Activity ECHCG [18, 29]: 0; Pre-emerge Herbicidal Activity ECHCG [18, 30]: 30; Pre-emerge Herbicidal Activity DIGSA [19, 29]: 10; Pre-emerge Herbicidal Activity DIGSA [19, 30]: 90; Pre-emerge Herbicidal Activity SORHA [20, 29]: 0; Pre-emerge Herbicidal Activity SORHA [20, 30]: 20; Pre-emerge Herbicidal Activity CASOB [21, 29]: 0; Pre-emerge Herbicidal Activity CASOB [21, 30]: 0; Pre-emerge Herbicidal Activity AMARE [22, 29]: 70; Pre-emerge Herbicidal Activity AMARE [22, 30]: 100

— patent US6355799B1, “Substituted benzene compounds, process for their preparation, and herbicidal and defoliant compositions containing them” (ISK Americas Incorporated, priority 1997, dated 2002)
